Measurements: patent US7825294B2 (priority 2006, dated 2010)

Key:
Format in all cases: cell-based
[1] = tested on: Fusarium graminearum (FGR); conditions: standard plate assay, 4,000 spores/mL, ¼× potato dextrose broth, 28° C., 24 to 48 hours
[2] = tested on: Fusarium verticillioides (FVE)
[3] = tested on: Colectotricum graminicola (CGR); conditions: standard plate assay, 4,000 spores/mL, ¼× Czapec-Dox V8, 28° C., 24 to 48 hours
Diplodia maydis (DMA) = conditions: standard plate assay, 6,000 spores/mL, ¼× potato dextrose broth, 28° C., 24 to 48 hours

Domain B (SPKKDEHEHCGKHASFNEEKKECVCHDKSEVFEKHHKKCKKAKDEKKKDDKKH; Domain B of SEQ ID NO34)
antifungal activity against FGR [1]: showed antifungal activity to varying extents

Domain C (KKDKHHDHCGKHASYSEEKKECVCHNKAEVFERKHKKCKKHISLR; Domain C of SEQ ID NO34)
antifungal activity against FGR [1]: showed antifungal activity to varying extents

Domain D (SIFNHCGRHAYYDEAKKECICHDAGKDFLKKHKTCACPQGEKWHHIERKCKA; Domain D of SEQ ID NO34)
antifungal activity against FGR [1]: showed antifungal activity to varying extents

SEQ ID NO:1: antipathogenic polypeptide (52 amino acids) isolated from a fungal fermentation broth extract of Fusarium oxysporum, designated LB-12265 (SILHHCGKHASWDHAKSECVCHDSGKVYTKKHHKCKCPKGEKWHHIEKKCKK; PEPTIDE (1)...(52) Predicted mature LB-12265 peptide; listed as Fusarium oxysporum)
antifungal activity against FGR [1]: showed antifungal activity | antifungal activity against FVE [2]: showed antifungal activity | antifungal activity against CGR [3]: showed antifungal activity | antifungal activity against DMA (Diplodia maydis (DMA)): showed antifungal activity

SEQ ID NO:3: deduced amino acid sequence encoded by a nucleotide sequence from a fungal contaminant, most likely Fusarium, of a proprietary maize EST library (SILHHCGKHASWDHAKSECVCHDSGKVYTKKHHKCKCPKGEKWHHIEKKCKK; Deduced amino acid sequence encoded by SEQ ID NO4 from a fungal contaminant of Zea mays)
antifungal activity against FVE [2]: has antifungal activity

B1: SEQ ID NO:11: Q174 protein isolated from Hypocrea lixii (Accession No. CAA64974) (protein, listed as Hypocrea lixii)
chain: MLLKQVLVAALLSLSSVTAFPNPNNLHDVEARDVEDNLVARGGSHDCGSYASWNNGKNCCVCKDNGKNYDSKSKSCNCPSGYTWNGHQCVHDCGKDATWQYGNCVCNKKGEVYNPKDKTCSCPPGQYWNGKNCQVDCGKDASYDYKQKKCVCKKHGEIYNSNSKTCSCPPGQVWNGYACVVDCGKEAHFDNKQKKCVCNNYGEIYNSGSKTCACPGGQYFNGKKCVCPYGKVWNGKQCVEDCGKEAHFDYNQKKCVCKNNGEVYNSAKKTCSCPDGQYWNGKQCVCPYGQVFNGKQCVPDCGKEATFDYNQKKCVCKNKGEIYDSKTKTCSCPDGQVWNGKQCVCPYGQVFNGKQCVPDCGKDATYDYNQKKCVCKNKGEVFDQKTKTCSCPDGQYWNGKQCACPYGQIFNGKQCVPDCGKDATYDYNQKKCVCKNKGEVFDQKTKTCSCPDGQYWNGKQCVCPYGKIFDGKQCVEDCGKDAHFDNNQKKCVCNKNGEIYDSKSKTCSCPDSQYWDGSKCACPYGTVWDGKHCNQDCGKDAHFDSNQKKCVCNKQGEVYDSKSKTCSCPDGQYWDGSKCACPYGKVWDGKQCVPNCGKDASYDSKQNKCVCKNIGQVFDTKSLTCSCPAGTSWNGHACVQDCGKDAHYDSNQKCCVCNNKGESYDSKSKTCSCPGNQYWDGNKCACPYGSTWDSSKKTCKMNYP
antifungal activity against FGR [1]: showed antifungal activity to varying extents | antifungal activity against FVE [2]: showed antifungal activity to varying extents | antifungal activity against CGR [3]: showed antifungal activity to varying extents | antifungal activity against DMA (Diplodia maydis (DMA)): showed antifungal activity to varying extents
